Laboratory results reported in ChEMBL document CHEMBL3120092, “Discovery of GS-9669, a thumb site II non-nucleoside inhibitor of NS5B for the treatment of genotype 1 chronic hepatitis C infection” (J Med Chem, 2014).

How the values were obtained:
[1] = system: Hepatitis C virus; assay: Antiviral activity against Hepatitis C virus H77 genotype 1a infected in human HuH7 cells assessed as observed antiviral potency after 72 hrs by luciferase reporter gene assay; type: functional, organism-based, Hepacivirus hominis; conditions: genotype 1a H77, Huh-7, 72 h
[2] = system: Hepatitis C virus; assay: Antiviral activity against Hepatitis C virus H77 genotype 1a infected in human HuH7 cells assessed as intrinsic antiviral potency after 72 hrs by luciferase reporter gene assay; type: functional, organism-based, Hepacivirus hominis; conditions: genotype 1a H77, Huh-7, 72 h
[3] = Cytotoxicity against human MT4 cells after 5 days by Cell Titre Glo assay; type: cell-based
[4] = system: Hepatitis C virus; assay: Antiviral activity against Hepatitis C virus H77 genotype 1a infected in human HuH7 cells assessed as plasma adjusted antiviral potency after 72 hrs by luciferase reporter gene assay; type: functional, organism-based, Hepacivirus hominis; conditions: genotype 1a H77, Huh-7, Plasma
[5] = Lipophilicity, log D of the compound by chromatography; type: physicochemical
[6] = Mean residence time in Sprague-Dawley rat at 0.5 mg/kg, iv; type: ADME, organism-based; parameters: dose 0.5 mg/kg, route intravenous; conditions: in vivo
[7] = Intrinsic cytotoxicity against human MT4 cells after 5 days by Cell Titre Glo assay; type: cell-based
[8] = system: Hepatitis C virus; assay: Selectivity ratio of EC50 for HCV genotype 1b harboring NS5B polymerase M423T mutant to EC50 for HCV genotype 1b harboring wild type NS5B polymerase; type: functional, Hepacivirus hominis
[9] = system: Hepatitis C virus; assay: Antiviral activity against HCV genotype 1b harboring NS5B polymerase M423T mutant infected in human HuH7-Lunet cells by luciferase reporter gene assay; type: functional, organism-based, Hepacivirus hominis; conditions: Huh-7
[10] = Cytotoxicity against human HuH7 cells after 3 days by Cell Titre Glo assay; type: cell-based, Huh-7
[11] = Fraction unbound in cell culture medium at 2 uM at pH 7.4 by equilibrium dialysis method; type: ADME
[12] = system: Hepatitis C virus; assay: Antiviral activity against Hepatitis C virus Con1 genotype 1b infected in human HuH7 cells after 72 hrs by luciferase reporter gene assay; type: functional, organism-based, Hepacivirus hominis; conditions: isolate Con1, Huh-7, 72 h
[13] = Mean residence time in Sprague-Dawley rat at 1 mg/kg, iv; type: ADME, organism-based; parameters: dose 1 mg/kg, route intravenous; conditions: in vivo

| SMILES | EC50 [1] | EC50 [2] | CC50 at 120 h [3] | EC50 [4] | chromatographic logD [5] | MRT [6] | CC50 at 120 h [7] | Ratio EC50 [8] | EC50 [9] | CC50 at 72 h [10] | fraction unbound at 2 µM [11] | EC50 [12] | MRT [13] |
| --- | --- | --- | --- | --- | --- | --- | --- | --- | --- | --- | --- | --- | --- |
| C[C@H]1CC[C@H](C(=O)N(c2cc(C#CC3(C(F)(F)F)CC3)sc2C(=O)O)[C@H]2CC[C@H](Oc3ccc(O)nn3)CC2)CC1 | 0.061 µM | 0.0069 µM | > 20 µM | 0.751 µM |  |  |  |  |  |  |  |  |  |
| CC(C)(C)C#Cc1cc(N(C(=O)[C@H]2CC[C@H](C)CC2)[C@H]2CC[C@@H](Oc3ccc(O)nn3)CC2)c(C(=O)O)s1 | 0.024 µM | 0.0026 µM | > 20 µM | 0.277 µM | 1.8 | 0.5 h | 2.17 µM |  |  |  |  |  |  |
| CC(C)(C)C#Cc1cc(N(C(=O)[C@H]2CC[C@H](C)CC2)[C@H]2CC[C@H](Oc3ccc(=O)[nH]n3)CC2)c(C(=O)O)s1 | 0.039 µM | 0.0035 µM | > 20 µM | 0.285 µM | 2 | 1.6 h | 1.48 µM |  |  |  |  |  |  |
| CC(C)N(c1cc(C#CC(C)(C)C)sc1C(=O)O)C(=O)[C@H]1CC[C@H](C)CC1 |  | 0.0055 µM | > 20 µM |  |  |  |  | 11 | 0.293 µM | ≥ 20 µM | 0.06 |  |  |
| C[C@@H](CCO)N(c1cc(C#CC(C)(C)C)sc1C(=O)O)C(=O)[C@H]1CC[C@H](C)CC1 | 0.015 µM | 0.0033 µM | > 20 µM |  |  |  |  |  |  | ≥ 20 µM | 0.22 | 0.007 µM |  |
| CC(C)N(C(=O)[C@H]1CC[C@@H]2C[C@@H]2CC1)c1cc(C#CC(C)(C)C)sc1C(=O)O | 6.19 µM | 0.483 µM | > 20 µM |  |  |  |  |  |  |  | 0.08 |  |  |
| CC(C)(C)C#Cc1cc(N(C(=O)[C@H]2CC[C@H](C)CC2)[C@H]2CC[C@H](OC3COC3)CC2)c(C(=O)O)s1 |  | 0.0043 µM | > 20 µM | 0.102 µM | 2.6 |  | 8.35 µM |  |  |  |  |  |  |
| C[C@H]1CC[C@H](C(=O)N(c2cc(C#CC3(C(F)(F)F)CCC3)sc2C(=O)O)[C@H]2CC[C@H](Oc3ccc(O)nn3)CC2)CC1 | 0.12 µM | 0.0027 µM | > 20 µM | 0.607 µM |  |  |  |  |  |  |  |  |  |
| CC(C)(C)C#Cc1cc(N(C(=O)[C@H]2CC[C@H](C)CC2)C2CCN(C(=O)c3cccnc3)CC2)c(C(=O)O)s1 | 0.183 µM | 0.043 µM | > 20 µM |  |  |  |  |  |  |  | 0.23 |  |  |
| CC(C)(C)C#Cc1cc(N(C(=O)[C@H]2CC[C@H](C)CC2)C2CCN(S(C)(=O)=O)CC2)c(C(=O)O)s1 | 0.051 µM | 0.0087 µM | > 20 µM |  |  |  |  |  |  |  | 0.17 |  |  |
| CC(C)N(C(=O)[C@H]1[C@@H]2CCCC[C@@H]21)c1cc(C#CC(C)(C)C)sc1C(=O)O | 4.68 µM | 0.206 µM | > 20 µM |  |  |  |  |  |  |  | 0.04 |  |  |
| CC(C)N(c1cc(-c2ccccc2)sc1C(=O)O)C(=O)[C@H]1CC[C@H](C)CC1 | 2.1 µM | 0.17 µM | > 20 µM |  |  |  |  |  |  | ≥ 20 µM | 0.08 | 0.593 µM |  |
| CC(C)(C)C#Cc1cc(N(CCO)C(=O)[C@H]2CC[C@H](C)CC2)c(C(=O)O)s1 | 0.304 µM |  | > 20 µM |  |  |  |  |  |  | ≥ 20 µM |  | 0.078 µM |  |
| CC(C)(C)C#Cc1cc(N(C(=O)[C@H]2CC[C@H](C)CC2)[C@H]2CC[C@@H](Oc3cccnc3)CC2)c(C(=O)O)s1 | 0.045 µM | 0.0012 µM | > 20 µM |  |  | 0.2 h |  |  |  |  |  |  |  |
| CC(C)(C)C#Cc1cc(N(C(=O)[C@H]2CC[C@H](C)CC2)[C@H]2CC[C@H](Oc3cccnc3)CC2)c(C(=O)O)s1 | 0.128 µM | 0.0036 µM | > 20 µM |  |  |  |  |  |  |  | 0.03 |  | 3.4 h |
| CC(C)(C)C#Cc1cc(N(C(=O)[C@H]2CC[C@H](C)CC2)[C@H]2CC[C@H](Oc3ccncn3)CC2)c(C(=O)O)s1 | 0.075 µM | 0.0028 µM | > 20 µM | 1.39 µM | 2.3 | 7.1 h | 0.599 µM |  |  |  |  |  |  |
| CC1CC=C(C(=O)N(c2cc(C#CC(C)(C)C)sc2C(=O)O)C(C)C)CC1 (configuration not stated) | 0.773 µM | 0.065 µM | > 20 µM |  |  |  |  |  |  |  | 0.08 |  |  |
| CC(C)(C)C#Cc1cc(N(C(=O)[C@H]2CC[C@H](C)CC2)[C@H]2CC[C@H](Oc3ccccn3)CC2)c(C(=O)O)s1 | 0.297 µM | 0.0025 µM | > 20 µM | 1.05 µM | 3 |  | 0.1 µM |  |  |  |  |  | 5 h |
| CC(C)(C)C#Cc1cc(N(C(=O)[C@H]2CC[C@H](C)CC2)[C@H]2CC[C@@](O)(CO[C@H]3CCOC3)CC2)c(C(=O)O)s1 |  | 0.0043 µM | > 20 µM | 0.191 µM |  | 0.2 h | 18.1 µM |  |  |  |  |  |  |
